According to patent US9321773B2, “Compounds” (Respivert Ltd, priority 2009, dated 2016):
Like-named read-outs stand apart in the source and are kept apart here.

Key:
[1] = tested on: PMA-differentiated U937 cells; assay: MTT Assay (cell viability); format: cell-based, Human; details: percentage loss of cell viability; for Cell Viability MTT Assay in D-U937 cells at 4 hr: 4 hr in 5% FCS; for Cell Viability MTT Assay in D-U937 cells at 24 hr: 24 hr in 10% FCS
Protocol: PMA-differentiated U937 cells were pre-incubated with compound for 4 hr in 5% FCS or 10% FCS for 24 hr. The supernatant was replaced with 200 μL of new media and 10 μL of MTT stock solution (5 mg/ml) added to each well. After 1 hr incubation, the media were removed, 200 μL of DMSO added to each well and the plates were shaken lightly for 1 hr prior to reading the absorbance at 550 nm. The percentage loss of cell viability was calculated for each well relative to vehicle (0.5% DMSO)-treatment (Table 3).

recombinant PI3 kinase δ = recombinant PI3 kinase δ (Homo sapiens (Human), UniProt O00329); assay: Enzyme Inhibition Assay (HTRF PI3K enzyme assay, TR-FRET); format: biochemical
Description: (§1) PI3 kinases catalyse the phosphorylation of phosphatidylinositol 4,5-biphosphate (PIP2) to phosphatidylinositol 3,4,5-triphosphate (PIP3) in the presence of ATP and Mg^2+ ions. The PIP3 product can be detected by displacement of biotin-PIP3 from energy transfer complexes consisting of europium labelled anti-GST monoclonal antibody, a GST-tagged Pleckstrin homology (PH) domain, biotinylated PIP3 and streptavidin-allophycocyanin (APC) by the time-resolved fluorescence resonance energy transfer (TR-FRET) (HTRF® PI3K enzyme assay, Millipore). […] The PIP3 product formed by PI3K activity displaces biotin-PIP3 from the complex and results in a loss of energy transfer (decreasing signal).
(§2) The compound to be tested was added, at the desired final concentrations, to a mixture of PIP2 substrate and recombinant PI3 kinase α, δ or γ enzymes (Millipore), and the mixture incubated for 2 hr at RT. […] A stopping solution containing biotinylated PIP3 and the detection mix containing the GST tagged GRP1 pleckstrin homology (PH) domain and fluorophores were then added and the mixture was incubated at RT for 15-18 hr, prior to detection in a fluorescence microplate reader (Varioskan® Flash, ThermoFisher Scientific).

recombinant PI3 kinase α = recombinant PI3 kinase α (Homo sapiens (Human), UniProt P42336); assay: as above; format: biochemical
Description: as §1, §2

recombinant PI3 kinase γ = recombinant PI3 kinase γ (Homo sapiens (Human), UniProt P48736); assay: as above; format: biochemical
Description: as §1, §2

[2] = tested on: H2O2 induced pAkt in D-U937 cells; assay: PI3Kδ Cell Based Assay (H2O2 induced pAkt); details: Homo sapiens, dU937
Protocol: As a means of assessing PI3K 6 activation in response to stimuli, the phosphorylation status of the protein, Akt, a downstream product of PI3K6, signaling was determined. Human monocytic cells (U937 cells), were differentiated to macrophage-type cells by incubation with phorbol myristate acetate (PMA; 100 ng/mL) for 48 to 72 hr. […] The cells were washed with buffer (PBS containing 0.1% Triton X-100) and were incubated with blocking solution (1% BSA in PBS) for 1 hr and were then re-washed with buffer and incubated overnight with either anti-pAkt antibody or anti-pan-Akt antibody (both from Cell Signaling Technology). […] This reaction was stopped by addition of 100 μL of 1N H2SO4 solution. […] The ratio of pAkt signal to total Akt signal was used to quantitate the extent of PI3K δ activation. […] The IC50 values were calculated from the concentration-response curves generated by the serial dilutions of the test compounds (Table 3 and Table 4).

[3] = activity range, read-out: PI3 Kinase Inhibition IC50 values at stated Isozyme δ
[4] = activity range, read-out: PI3 Kinase Inhibition IC50 values at stated Isozyme α
[5] = activity range, read-out: PI3 Kinase Inhibition IC50 values at stated Isozyme γ
[6] = activity range, D-U937 cells, read-out: Cellular Activity IC50 values (H2O2 induced pAkt D-U937 Cells)

Sequence of recombinant PI3 kinase α (P42336 whole entry): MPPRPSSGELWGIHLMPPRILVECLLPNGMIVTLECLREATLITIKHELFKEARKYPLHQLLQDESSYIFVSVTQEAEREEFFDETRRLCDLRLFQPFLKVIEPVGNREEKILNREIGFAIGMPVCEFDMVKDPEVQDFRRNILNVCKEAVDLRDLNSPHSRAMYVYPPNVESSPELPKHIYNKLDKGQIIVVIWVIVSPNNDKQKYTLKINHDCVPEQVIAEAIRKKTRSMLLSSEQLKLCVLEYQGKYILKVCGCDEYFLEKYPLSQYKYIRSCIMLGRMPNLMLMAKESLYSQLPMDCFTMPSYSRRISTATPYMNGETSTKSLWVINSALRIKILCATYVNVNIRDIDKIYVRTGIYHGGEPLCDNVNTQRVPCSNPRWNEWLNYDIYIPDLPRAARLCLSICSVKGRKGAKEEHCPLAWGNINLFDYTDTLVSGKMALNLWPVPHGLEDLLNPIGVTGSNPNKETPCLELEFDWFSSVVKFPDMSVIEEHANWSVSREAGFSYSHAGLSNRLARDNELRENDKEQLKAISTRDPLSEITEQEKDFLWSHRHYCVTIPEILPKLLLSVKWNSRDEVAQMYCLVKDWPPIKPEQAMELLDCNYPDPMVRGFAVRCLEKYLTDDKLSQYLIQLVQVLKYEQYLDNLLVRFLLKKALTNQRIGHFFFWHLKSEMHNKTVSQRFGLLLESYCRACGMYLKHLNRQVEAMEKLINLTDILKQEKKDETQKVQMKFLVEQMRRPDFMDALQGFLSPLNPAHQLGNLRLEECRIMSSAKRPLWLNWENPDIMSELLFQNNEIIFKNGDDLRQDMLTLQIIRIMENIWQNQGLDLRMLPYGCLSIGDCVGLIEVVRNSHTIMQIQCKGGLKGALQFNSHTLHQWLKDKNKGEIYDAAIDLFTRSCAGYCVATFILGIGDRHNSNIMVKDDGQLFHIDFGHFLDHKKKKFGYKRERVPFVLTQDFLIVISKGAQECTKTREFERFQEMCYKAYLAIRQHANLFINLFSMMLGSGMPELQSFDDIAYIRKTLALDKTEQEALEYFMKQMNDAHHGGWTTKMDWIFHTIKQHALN
Sequence of recombinant PI3 kinase α (P27986 whole entry partner): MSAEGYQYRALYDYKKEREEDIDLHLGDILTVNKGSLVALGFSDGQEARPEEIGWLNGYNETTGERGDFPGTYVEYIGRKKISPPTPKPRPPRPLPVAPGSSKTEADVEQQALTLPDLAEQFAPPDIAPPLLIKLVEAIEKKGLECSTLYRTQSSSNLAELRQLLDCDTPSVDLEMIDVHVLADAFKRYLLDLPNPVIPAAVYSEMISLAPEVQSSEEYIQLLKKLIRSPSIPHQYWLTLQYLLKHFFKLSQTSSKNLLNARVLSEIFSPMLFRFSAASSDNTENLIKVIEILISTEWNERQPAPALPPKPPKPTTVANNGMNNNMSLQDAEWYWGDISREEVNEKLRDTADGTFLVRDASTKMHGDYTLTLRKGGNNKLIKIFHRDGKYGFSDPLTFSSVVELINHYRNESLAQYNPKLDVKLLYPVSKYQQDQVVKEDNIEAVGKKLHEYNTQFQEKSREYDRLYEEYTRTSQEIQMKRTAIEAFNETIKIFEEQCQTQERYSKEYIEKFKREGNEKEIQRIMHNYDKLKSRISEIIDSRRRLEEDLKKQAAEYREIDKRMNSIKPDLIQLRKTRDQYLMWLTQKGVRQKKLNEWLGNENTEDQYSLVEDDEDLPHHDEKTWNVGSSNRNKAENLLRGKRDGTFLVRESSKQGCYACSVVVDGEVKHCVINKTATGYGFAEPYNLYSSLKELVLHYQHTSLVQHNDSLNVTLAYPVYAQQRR
Sequence of recombinant PI3 kinase δ (O00329 whole entry): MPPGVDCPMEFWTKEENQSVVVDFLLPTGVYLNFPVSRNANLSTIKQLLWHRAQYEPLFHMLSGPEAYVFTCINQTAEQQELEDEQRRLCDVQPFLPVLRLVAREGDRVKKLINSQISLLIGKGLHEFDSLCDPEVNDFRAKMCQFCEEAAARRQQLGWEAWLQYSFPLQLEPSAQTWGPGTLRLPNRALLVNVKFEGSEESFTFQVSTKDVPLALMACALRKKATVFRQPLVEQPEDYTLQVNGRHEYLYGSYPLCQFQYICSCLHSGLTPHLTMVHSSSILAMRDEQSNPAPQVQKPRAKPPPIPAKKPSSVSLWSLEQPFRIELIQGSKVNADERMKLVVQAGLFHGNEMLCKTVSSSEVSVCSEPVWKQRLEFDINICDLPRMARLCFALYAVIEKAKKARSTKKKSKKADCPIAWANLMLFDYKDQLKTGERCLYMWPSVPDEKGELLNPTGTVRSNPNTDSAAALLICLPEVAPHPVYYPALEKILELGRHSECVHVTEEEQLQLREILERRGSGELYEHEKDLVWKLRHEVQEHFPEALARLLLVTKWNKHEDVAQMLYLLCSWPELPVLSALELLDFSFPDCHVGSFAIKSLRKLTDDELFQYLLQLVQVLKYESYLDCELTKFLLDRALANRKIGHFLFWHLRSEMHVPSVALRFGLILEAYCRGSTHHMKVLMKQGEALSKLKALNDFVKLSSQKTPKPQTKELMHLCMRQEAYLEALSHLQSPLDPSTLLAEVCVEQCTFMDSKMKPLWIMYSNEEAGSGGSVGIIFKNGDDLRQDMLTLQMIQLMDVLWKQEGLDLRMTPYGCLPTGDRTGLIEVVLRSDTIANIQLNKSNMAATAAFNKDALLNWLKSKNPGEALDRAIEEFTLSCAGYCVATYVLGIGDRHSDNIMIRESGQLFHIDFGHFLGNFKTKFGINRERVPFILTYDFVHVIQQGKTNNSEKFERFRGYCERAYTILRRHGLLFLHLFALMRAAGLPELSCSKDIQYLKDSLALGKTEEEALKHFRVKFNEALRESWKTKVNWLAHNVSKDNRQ
Sequence of recombinant PI3 kinase δ (P27986 whole entry partner): as the sequence (P27986 whole entry partner) above
Sequence of recombinant PI3 kinase γ (P48736 whole entry): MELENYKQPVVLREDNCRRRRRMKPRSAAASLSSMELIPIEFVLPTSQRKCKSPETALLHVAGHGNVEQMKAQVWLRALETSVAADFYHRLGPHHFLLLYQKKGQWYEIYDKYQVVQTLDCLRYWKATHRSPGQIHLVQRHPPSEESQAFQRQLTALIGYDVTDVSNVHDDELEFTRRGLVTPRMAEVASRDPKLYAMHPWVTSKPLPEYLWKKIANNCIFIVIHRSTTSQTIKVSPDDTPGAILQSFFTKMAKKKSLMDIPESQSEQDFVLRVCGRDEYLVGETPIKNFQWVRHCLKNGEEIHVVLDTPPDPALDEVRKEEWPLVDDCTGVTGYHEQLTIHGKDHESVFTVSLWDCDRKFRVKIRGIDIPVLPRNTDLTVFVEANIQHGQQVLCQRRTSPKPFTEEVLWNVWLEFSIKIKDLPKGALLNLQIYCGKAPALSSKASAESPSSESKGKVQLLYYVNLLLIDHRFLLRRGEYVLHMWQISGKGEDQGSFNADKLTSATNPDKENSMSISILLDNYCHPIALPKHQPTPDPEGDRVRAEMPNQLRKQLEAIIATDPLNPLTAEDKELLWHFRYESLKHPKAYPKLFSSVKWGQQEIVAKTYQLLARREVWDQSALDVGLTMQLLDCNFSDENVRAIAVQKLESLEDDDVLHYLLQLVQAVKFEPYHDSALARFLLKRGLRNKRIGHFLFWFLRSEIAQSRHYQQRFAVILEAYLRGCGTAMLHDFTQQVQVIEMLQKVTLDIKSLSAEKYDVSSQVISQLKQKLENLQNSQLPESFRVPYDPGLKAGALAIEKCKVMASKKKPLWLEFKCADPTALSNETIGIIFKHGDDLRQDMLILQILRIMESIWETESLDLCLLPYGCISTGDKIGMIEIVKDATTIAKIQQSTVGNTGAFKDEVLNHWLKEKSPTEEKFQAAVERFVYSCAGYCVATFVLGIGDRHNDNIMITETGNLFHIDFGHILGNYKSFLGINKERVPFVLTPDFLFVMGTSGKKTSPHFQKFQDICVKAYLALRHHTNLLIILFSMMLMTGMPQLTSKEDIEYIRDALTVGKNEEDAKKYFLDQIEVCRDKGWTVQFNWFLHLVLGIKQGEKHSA

Row | SMILES | IC50 (recombinant PI3 kinase δ; [3]) [nM] | IC50 (recombinant PI3 kinase α; [4]) [nM] | IC50 (recombinant PI3 kinase γ; [5]) [nM] | IC50 [2, 6] [nM] | IC50 (recombinant PI3 kinase δ; read-out: PI3 Kinase Inhibition IC50 values at stated Isozyme (nM) δ) [nM] | IC50 (recombinant PI3 kinase α; read-out: PI3 Kinase Inhibition IC50 values at stated Isozyme (nM) α) [nM] | IC50 (recombinant PI3 kinase γ; read-out: PI3 Kinase Inhibition IC50 values at stated Isozyme (nM) γ) [nM] | IC50 ([2]; read-out: Cellular Activity IC50 values (H2O2 induced pAkt (nM) D-U937 Cells)) [nM] | Cell Viability MTT Assay in D-U937 cells at 4 hr [1] | Cell Viability MTT Assay in D-U937 cells at 24 hr [1]
1 | COC(=O)c1cccc(Cn2c(Cn3nc(-c4cccc(O)c4)c4c(N)ncnc43)nc3cccc(C#CCCCC(=O)N4CCOCC4)c3c2=O)c1 [Example 65, Methyl 3-((2-((4-amino-3-(3-hyroxyphenyl)-1H-pyrazolo[3,4-d]pyrimidin-1-yl)methyl)-5-(6-morpholino-6-oxohex-1-yn-1-yl)-4-oxoquinazolin-3(4H)-yl)methyl)benzoate] | < 50 | 50 to 1000 | < 50 | < 10 |  |  |  |  | − (− <30%) | − (− <30%)
2 | Nc1ncnc2c1c(-c1ccc(O)cc1)nn2Cc1nc2cccc(C#CCCCNC3CCCC3)c2c(=O)n1Cc1ccccc1Cl [Example 7, 2-((4-Amino-3-(4-hydroxyphenyl)-1H-pyrazolo[3,4-d]pyrimidin-1-yl)methyl)-3-(2-chlorobenzyl)-5-(5-(cyclopentylamino)pent-1-ynyl)quinazolin-4(3H)-one] | < 50 | 50 to 1000 | 50 to 1000 | < 10 |  |  |  |  | − (− <30%) | − (− <30%)
3 | Nc1ncnc2c1c(-c1ccc(O)cc1)nn2Cc1nc2cccc(C#CCCCC(=O)N3CCCCC3)c2c(=O)n1Cc1ccccc1Cl [Example 58, 2-((4-Amino-3-(4-hydroxyphenyl)-1H-pyrazolo[3,4-d]pyrimidin-1-yl)methyl)-3-(2-chlorobenzyl)-5-(6-oxo 6-(piperidin-1-yl)hex-1-yn-1-yl)quinazolin-4(3H)-one] | < 50 | 50 to 1000 | < 50 | < 10 |  |  |  |  | − (− <30%) | − (− <30%)
4 | COCC#Cc1cccc2nc(Cn3nc(-c4cccc(O)c4)c4c(N)ncnc43)n(Cc3cccc(C(F)(F)F)c3)c(=O)c12 [Example 37, 2-((4-Amino-3-(3-hydroxyphenyl)-1H-pyrazolo[3,4-d]pyrimidin-1-yl)methyl)-5-(3-methoxyprop-1-ynyl)-3-(3-(trifluoromethyl)benzyl)quinazolin-4(3H)-one] | < 50 | 50 to 1000 | > 1000 | < 10 | 12 | 474 | 1610 | 0.33 | − (− <30%) | − (− <30%)
5 | CC(=O)NCC(=O)NCC#Cc1cccc2nc(Cn3nc(-c4cccc(O)c4)c4c(N)ncnc43)n(Cc3ccccc3Cl)c(=O)c12 [Example 61, 2-Acetamido-N-(3-(2-((4-amino-3-(3-hydroxyphenyl)-1H-pyrazolo[3,4-d]pyrimidin-1-yl)methyl)-3-(2-chlorobenzyl)-4-oxo-3,4-dihydroquinazolin-5-yl)prop-2-yn-1-yl)acetamide] |  |  |  | < 10 |  |  |  |  | − (− <30%) | − (− <30%)
6 | Nc1ncnc2c1c(-c1cccc(O)c1)nn2Cc1nc2cccc(C#CCCCC(=O)Nc3ccncc3)c2c(=O)n1Cc1ccccc1Cl [Example 80, 6-(2-((4-Amino-3-(3-hydroxyphenyl)-1H-pyrazolo[3,4-d]pyrimidin-1-yl)methyl)-3-(2-chlorobenzyl)-4-oxo-3,4-dihydroquinazolin-5-yl)-N-(pyridin-4-yl)hex-5-ynamide] | < 50 |  |  | 10 to 1000 |  |  |  |  | − (− <30%) | − (− <30%)
7 | Nc1ncnc2c1c(-c1ccc(O)cc1)nn2Cc1nc2cccc(C#CCCCC(=O)NC3CCCC3)c2c(=O)n1Cc1ccccc1Cl [Example 74, 6-(2-((4-Amino-3-(4-hydroxyphenyl)-1H-pyrazolo[3,4-d]pyrimidin-1-yl)methyl)-3-(2-chlorobenzyl)-4-oxo-3,4-dihydroquinazolin-5-yl)-N-cyclopentylhex-5-ynamide] | < 50 |  |  |  |  |  |  |  | − (− <30%) | − (− <30%)
8 | COCCOCCOCC#Cc1cccc2nc(Cn3nc(-c4cccc(O)c4)c4c(N)ncnc43)n(Cc3ccccc3Cl)c(=O)c12 [Example 2, 2-((4-Amino-3-(3-hydroxyphenyl)-1H-pyrazolo[3,4-d]pyrimidin-1-yl)methyl)-3-(2-chlorobenzyl)-5-(3-(2-(2-methoxyethoxy)ethoxy)prop-1-yn-1-yl)quinazolin-4(3H)-one] |  | > 1000 |  | < 10 |  |  |  |  | − (− <30%) | − (− <30%)
9 | Cc1cnc(Cn2c(Cn3nc(-c4cccc(O)c4)c4c(N)ncnc43)nc3cccc(C#CCCCC(=O)N4CCOCC4)c3c2=O)cn1 [Example 57] |  |  |  | < 10 |  |  |  |  | − (− <30%) | − (− <30%)

Second part, led by results:

Row | IC50 (recombinant PI3 kinase δ; [3]) [nM] | IC50 (recombinant PI3 kinase α; [4]) [nM] | IC50 (recombinant PI3 kinase γ; [5]) [nM] | IC50 [2, 6] [nM] | IC50 (recombinant PI3 kinase δ; read-out: PI3 Kinase Inhibition IC50 values at stated Isozyme (nM) δ) [nM] | IC50 (recombinant PI3 kinase α; read-out: PI3 Kinase Inhibition IC50 values at stated Isozyme (nM) α) [nM] | IC50 (recombinant PI3 kinase γ; read-out: PI3 Kinase Inhibition IC50 values at stated Isozyme (nM) γ) [nM] | IC50 ([2]; read-out: Cellular Activity IC50 values (H2O2 induced pAkt (nM) D-U937 Cells)) [nM] | SMILES | Cell Viability MTT Assay in D-U937 cells at 4 hr [1] | Cell Viability MTT Assay in D-U937 cells at 24 hr [1]
10 | 50 to 1000 |  |  | 10 to 1000 |  |  |  |  | CN1CCCN(C(=O)CCCC#Cc2cccc3nc(Cn4nc(-c5cccc(O)c5)c5c(N)ncnc54)n(Cc4ccccc4Cl)c(=O)c23)CC1 [Example 94, 2-((4-Amino-3-(3-hydroxyphenyl)-1H-pyrazolo[3,4-d]pyrimidin-1-yl)methyl)-3-(2-chlorobenzyl)-5-(6-(4-methyl-1,4-diazepan-1-yl)-6-oxohex-1-ynyl)quinazolin-4(3H)-one] | − (− <30%) | − (− <30%)
11 | < 50 |  |  | < 10 |  |  |  |  | CN1CCN(CCNC(=O)CCCC#Cc2cccc3nc(Cn4nc(-c5ccc(O)cc5)c5c(N)ncnc54)n(Cc4ccccc4Cl)c(=O)c23)CC1 [Example 84, 6-(2-((4-Amino-3-(4-hydroxyphenyl)-1H-pyrazolo[3,4-d]pyrimidin-1-yl)methyl)-3-(2-chlorobenzyl)-4-oxo-3,4-dihydroquinazolin-5-yl)-N-(2-(4-methylpiperazin-1-yl)ethyl)hex-5-ynamide] | − (− <30%) | − (− <30%)
12 | < 50 |  |  | < 10 |  |  |  |  | CN1CCN(CCN(C)C(=O)CCCC#Cc2cccc3nc(Cn4nc(-c5ccc(O)cc5)c5c(N)ncnc54)n(Cc4ccccc4Cl)c(=O)c23)CC1 [Example 85, 6-(2-((4-Amino-3-(4-hydroxyphenyl)-1H-pyrazolo[3,4-d]pyrimidin-1-yl)methyl)-3-(2-chlorobenzyl)-4-oxo-3,4-dihydroquinazolin-5-yl)-N-methyl-N-(2-(4-methylpiperazin-1-yl)ethyl)hex-5-ynamide] | − (− <30%) | − (− <30%)
13 | < 50 |  |  | < 10 |  |  |  |  | CC(C)NC(=O)CCCC#Cc1cccc2nc(Cn3nc(-c4cccc(O)c4)c4c(N)ncnc43)n(Cc3ccccc3Cl)c(=O)c12 [Example 87, 6-(2-((4-Amino-3-(3-hydroxyphenyl)-1H-pyrazolo[3,4-d]pyrimidin-1-yl)methyl)-3-(2-chlorobenzyl)-4-oxo-3,4-dihydroquinazolin-5-yl)-N-isopropylhex-5-ynamide] | − (− <30%) | − (− <30%)
14 | < 50 |  |  | 10 to 1000 |  |  |  |  | CN(C)C1CCN(C(=O)CCCC#Cc2cccc3nc(Cn4nc(-c5cccc(O)c5)c5c(N)ncnc54)n(Cc4ccccc4Cl)c(=O)c23)C1 (centres unmarked) [Example 92, 2-((4-Amino-3-(3-hydroxyphenyl)-1H-pyrazolo[3,4-d]pyrimidin-1-yl)methyl)-3-(2-chlorobenzyl)-5-(6-(3-(dimethylamino)pyrrolidin-1-yl)-6-oxohex-1-ynyl) quinazolin-4(3H)-one] | − (− <30%) | − (− <30%)
